Converted amounts (≈) assume the structure as drawn.
What was measured:
[1] = Toxicity in brine shrimp; type: organism-based; conditions: artemia, in vivo
A498 = experiment: Cytotoxicity against human A-498 cells; type: functional; conditions: Homo sapiens, A498; read-out: ED50 (the source's name)
MIA PaCa-2 = experiment: Cytotoxicity against human MIA PaCa2 cells; type: functional; conditions: for EC50: Homo sapiens, MIA PaCa-2, read-out: ED50 (the source's name)
A549 = experiment: Cytotoxicity against human A549 cells; type: functional; conditions: for EC50: Homo sapiens, A549, read-out: ED50 (the source's name)
PC-3 = experiment: Cytotoxicity against human PC-3 cells; type: functional; conditions: for EC50: Homo sapiens, PC-3, read-out: ED50 (the source's name)
MCF7 = experiment: Cytotoxicity against human MCF7 cells; type: functional; conditions: for EC50: Homo sapiens, MCF7, read-out: ED50 (the source's name)
HT-29 = experiment: Cytotoxicity against human HT-29 cells; type: functional; conditions: Homo sapiens, HT-29; read-out: ED50 (the source's name)
HCT-8 = experiment: Cytotoxicity against human HCT8 cells; type: functional, cell-based
Blattella germanica [2] = experiment: Ratio of LT50 for Blattella germanica Muncie fifth instars to LT50 for Blattella germanica Jwax fifth instars; type: functional
Blattella germanica [3] = experiment: Ratio of LT50 for Blattella germanica Muncie second instars to LT50 for Blattella germanica Jwax second instars; type: functional

| SMILES | LC50 [1] | EC50 (A498) | EC50 (MIA PaCa-2) | EC50 (A549) | EC50 (PC-3) | EC50 (MCF7) | EC50 (HT-29) | IC50 (HCT-8) | ED50 (MCF7) | Ratio (Blattella germanica [2]) | Ratio (Blattella germanica [3]) | ED50 (MIA PaCa-2) | ED50 (PC-3) | ED50 (A549) |
| --- | --- | --- | --- | --- | --- | --- | --- | --- | --- | --- | --- | --- | --- | --- |
| CCCCCCCCCC[C@@H](O)[C@H]1CC[C@H]([C@H](O)CCCC[C@H](O)CCCCCCC[C@@H](O)CC2=C[C@H](C)OC2=O)O1 [GLACIN A] | 0.11 µg/mL (≈ 0.184 µM) | 1.3 µg/mL (≈ 2.18 µM) | 0.0086 µg/mL (≈ 0.0144 µM) | 1.5 µg/mL (≈ 2.51 µM) | 0.0098 µg/mL (≈ 0.0164 µM) | 0.0044 µg/mL (≈ 0.00737 µM) | 2.3 µg/mL (≈ 3.85 µM) |  |  |  |  |  |  |  |
| CCCCCCCCCCCC[C@@H](O)[C@H]1CC[C@H]([C@H](O)CCCCC(O)CCCCC[C@@H](O)CC2=C[C@@](C)(O)OC2=O)O1 (stereo partly drawn) [GONIODONIN] |  |  |  |  |  |  |  | < 10 µg/mL |  |  |  |  |  |  |
| CCCCCCCCCCCCCCCC[C@@H](O)[C@H]1CC[C@H]([C@H](O)CC[C@H](O)CCCCC[C@@H](O)CC2=C[C@H](C)OC2=O)O1 [GONIOTETRACIN] | 0.2 µg/mL (≈ 0.32 µM) | 1.5 µg/mL (≈ 2.4 µM) | 0.026 µg/mL (≈ 0.0416 µM) | 0.39 µg/mL (≈ 0.624 µM) | 0.021 µg/mL (≈ 0.0336 µM) | 1.7 µg/mL (≈ 2.72 µM) | 1.5 µg/mL (≈ 2.4 µM) |  |  |  |  |  |  |  |
| CCCCCCCCCCCCC(=O)C[C@@H]1C[C@@H](O)[C@@H](CC[C@H](O)[C@@H]2CC[C@@H](CCCCC[C@@H](O)CC3=C[C@H](C)OC3=O)O2)O1 [GONIOTRIOCIN] | 2.7 µg/mL (≈ 4.24 µM) | 1.1 µg/mL (≈ 1.73 µM) | 1.4 µg/mL (≈ 2.2 µM) | 0.033 µg/mL (≈ 0.0518 µM) | 0.26 µg/mL (≈ 0.408 µM) |  | 0.0012 µg/mL (≈ 0.00188 µM) |  | 3.3 ×10⁻⁵ ug/ml |  |  |  |  |  |
| CC1(C)CNC(=NN=C(/C=C/c2ccc(C(F)(F)F)cc2)/C=C/c2ccc(C(F)(F)F)cc2)NC1 [HYDRAMETHYLNON] |  |  |  |  |  |  |  |  |  | 0.6 | 1 |  |  |  |
| CCCCCCCCCC[C@@H]1O[C@H]([C@@H]2CC[C@H]([C@H](O)CCCCCCCCCC[C@@H](O)CC3=C[C@H](C)OC3=O)O2)CC[C@H]1O [JIMENEZIN] | 0.0057 µg/mL (≈ 0.00915 µM) | 0.049 µg/mL (≈ 0.0787 µM) |  | 0.016 µg/mL (≈ 0.0257 µM) |  | > 0.1 µg/mL | 0.0043 µg/mL (≈ 0.0069 µM) |  |  |  |  | 1.7 ×10⁻⁴ ug/ml | 2.8 ×10⁻⁴ ug/ml |  |
| CCCCCCCCCCCCCC[C@H](O)CCCCCCC[C@H](O)CCCCC[C@@H](O)CC1=C[C@H](C)OC1=O [LONGANIN] | 12 µg/mL (≈ 21.2 µM) | 0.039 µg/mL (≈ 0.0688 µM) | 0.011 µg/mL (≈ 0.0194 µM) | 0.011 µg/mL (≈ 0.0194 µM) | 0.4 µg/mL (≈ 0.706 µM) | 3.4 µg/mL (≈ 6 µM) | 0.61 µg/mL (≈ 1.08 µM) |  |  |  |  |  |  |  |
| CCCCCCCCCCCC[C@@H](O)[C@H]1CC[C@H]([C@H](O)CCC(O)CCCC(O)CCC[C@@H](O)CC2=C[C@H](C)OC2=O)O1 (stereo partly drawn) [MURICAPENTOCIN] | 1.8 µg/mL (≈ 2.94 µM) | 1.7 µg/mL (≈ 2.77 µM) | 0.05 µg/mL (≈ 0.0816 µM) | 0.19 µg/mL (≈ 0.31 µM) | 0.45 µg/mL (≈ 0.734 µM) | 1.9 µg/mL (≈ 3.1 µM) | 0.071 µg/mL (≈ 0.116 µM) |  |  |  |  |  |  |  |
| CCCCCCCCCCCC[C@@H](O)[C@@H](O)CC[C@H](O)[C@@H]1CC[C@@H](C[C@@H](O)C[C@@H](O)CCC[C@@H](O)CC2=C[C@H](C)OC2=O)O1 [MURICOREACIN] | 19 µg/mL (≈ 30.2 µM) | 0.71 µg/mL (≈ 1.13 µM) | 2.3 µg/mL (≈ 3.66 µM) | 0.0023 µg/mL (≈ 0.00366 µM) | 0.025 µg/mL (≈ 0.0398 µM) | 1.3 µg/mL (≈ 2.07 µM) | 0.57 µg/mL (≈ 0.906 µM) |  |  |  |  |  |  |  |
| CCCCCCCCCCCC[C@@H](O)[C@@H](O)CC[C@H](O)[C@@H]1CC[C@@H](CCC[C@@H](O)[C@H](O)CC[C@@H](O)CC2=C[C@H](C)OC2=O)O1 [MURIHEXOCIN] | 10 µg/mL (≈ 15.9 µM) | 2.5 µg/mL (≈ 3.98 µM) | 0.49 µg/mL (≈ 0.779 µM) | 1.1 µg/mL (≈ 1.75 µM) | 0.86 µg/mL (≈ 1.37 µM) | 3.8 µg/mL (≈ 6.04 µM) | 1.3 µg/mL (≈ 2.07 µM) |  |  |  |  |  |  |  |
| CCCCCCCCCC[C@@H](O)[C@H]1CC[C@H]([C@H]2CC[C@H]([C@H](O)CCCCCCCC[C@@H](O)CC3=C[C@H](C)OC3=O)O2)O1 [PARVIFLORIN] |  |  |  |  |  |  |  |  |  | 1.5 | 0.9 |  |  |  |
| CNC(=O)Oc1ccccc1OC(C)C [PROPOXUR] |  |  |  |  |  |  |  |  |  | 1.7 | 3.8 |  |  |  |
| CCCCCCCCCCCCCC[C@H]1O[C@@H]([C@H](O)CC[C@H](O)CCCCC[C@@H](O)CC2=C[C@H](C)OC2=O)CC[C@H]1O [PYRAGONICIN] | 0.9 µg/mL (≈ 1.51 µM) | 0.13 µg/mL (≈ 0.218 µM) | 0.058 µg/mL (≈ 0.0972 µM) | 2 µg/mL (≈ 3.35 µM) | 0.12 µg/mL (≈ 0.201 µM) | 1.6 µg/mL (≈ 2.68 µM) | 2.8 µg/mL (≈ 4.69 µM) |  |  |  |  |  |  |  |
| CCCCCCCCCCCC[C@H]1O[C@@H]([C@H](O)CCCC[C@H](O)CCCCC[C@@H](O)CC2=C[C@H](C)OC2=O)CC[C@H]1O [PYRANICIN] | 0.3 µg/mL (≈ 0.503 µM) | 0.18 µg/mL (≈ 0.302 µM) | 0.0013 µg/mL (≈ 0.00218 µM) | 0.28 µg/mL (≈ 0.469 µM) | 0.41 µg/mL (≈ 0.687 µM) | 0.39 µg/mL (≈ 0.653 µM) | 1.2 µg/mL (≈ 2.01 µM) |  |  |  |  |  |  |  |
| CCCCCCCCCCCC[C@@H](O)[C@H]1CCC(C2CCC(CC(O)CCCCC[C@@H](O)CC3=C[C@H](C)OC3=O)O2)O1 (stereo partly drawn) [ROLLINACIN] | 3.5 µg/mL (≈ 5.88 µM) | 1.6 µg/mL (≈ 2.69 µM) | 2 µg/mL (≈ 3.36 µM) | 0.046 µg/mL (≈ 0.0773 µM) | 2.5 µg/mL (≈ 4.2 µM) | 0.16 µg/mL (≈ 0.269 µM) | 2.1 µg/mL (≈ 3.53 µM) |  |  |  |  |  |  |  |
| CCCCCCCCCC[C@@H](O)[C@@H]1CC[C@H]([C@H](O)CC[C@H](O)[C@@H]2CC[C@@H](CCCCCCC[C@@H](O)CC3=C[C@H](C)OC3=O)O2)O1 [SYLVATICIN] |  |  |  |  |  |  |  |  |  | 3.9 | 1.7 |  |  |  |
| CCCCCCCCCC[C@H](O)[C@H]1CC[C@H]([C@H](O)CC[C@H](O)[C@@H]2CC[C@@H](CCCCC[C@@H](O)CC3=C[C@H](C)OC3=O)O2)O1 [TRILOBALICIN] | 5.8 µg/mL (≈ 9.49 µM) | 0.006 µg/mL (≈ 0.00982 µM) | 0.28 µg/mL (≈ 0.458 µM) |  | 0.98 µg/mL (≈ 1.6 µM) |  | 2.3 µg/mL (≈ 3.77 µM) |  | 1.6 ×10⁻⁷ ug/ml |  |  |  |  | 5.8 ×10⁻⁸ ug/ml |

Source: ChEMBL document CHEMBL1141818, “Annonaceous acetogenins: recent progress” (J Nat Prod, 1999)
